What was measured:
[1] = system: Rab10 pThr73; assay: Rab10 Thr73 dephosphorylation (immunoblot) in LRRK2^G2019S MEFs; type: cell-based, mouse; conditions: Mus musculus, read-out: pRab10 inhibited in LRRK2^G2019S MEFs
[2] = system: Rab10 pThr73; assay: Rab10 Thr73 dephosphorylation (immunoblot) in WT MEFs; type: cell-based, mouse; conditions: Mus musculus, read-out: pRab10 inhibited in WT MEFs
Protocol: (§1) Western blot degradation assays for the LRRK2 protacs were performed with WT and PD-associated LRRK2 [G2019S] mouse embryonic fibroblasts (MEFs). The second-generation PROTACs were tested in parallel with the first generation PROTACs SD75, SD82, and SD100. The compounds were tested at 33 nM or […] concentrations for 4 hours or 24 hours, running two biological replicates per condition and achieving quantifications representative of both replicates. Analysis by quantitative immunoblotting was performed with readouts of the total LRRK2 (antibody recognizes epitope in C-terminus of protein), Rab10 pThr73 (physiological substrate) and LRRK2 pSer935 (biomarker phosphorylation site).
(§2) Primary MEFs were generated as described in a previous study (Wiggin et al., Mol. Cell Biol. 2002 April; 22(8):2871-81.). Briefly, the uterine horn was collected from adult female mice at day E12.5 and transferred to a 10 cm tissue culture dish containing cold PBS. Two forceps were used to tear the yolk sacs to isolate each embryo. Forceps were cleaned thoroughly with 70% ethanol between each embryo isolation. The embryos were culled, and a tissue piece was collected in a PCR tube for genotyping. The red tissue of the embryo, which grows to become the heart and liver, was removed. The remainder of the embryo was minced with a scalpel blade and incubated with 7.5 ml trypsin-EDTA solution for 10 minutes in a 37° C. tissue culture CO2 incubator. The dish was removed from the incubator and checked under a light microscope for single cells. 7.5 ml complete media was added to the trypsinised cells, and the cell suspension was transferred to a 15 ml Falcon tube, centrifuged at 1200 rpm for 5 minutes at room temperature. The trypsin was aspirated, the cell pellet was resuspended in 5 ml fresh complete media, and the cell suspension was plated in a 60 mm tissue culture dish and incubated in a 37° C., 5% CO2 tissue culture incubator. The MEFs at this stage were considered as passage 0 and were passaged and expanded for experimental use once the genotype was confirmed by allelic sequencing and immunoblotting. MEFs were cultured in Dulbecco's modified Eagle medium (DMEM) containing 10% (v/v) fetal bovine serum (FBS), 2 mM L-glutamine, 100 U/ml penicillin, and 100 μg/ml streptomycin supplemented with 1× non-essential amino acids and 1 mM sodium pyruvate.
Culturing and passaging of adherent cell lines were carried out using aseptic technique in CL1 or CL2 (for PBMC isolation) biological safety cabinets. All cells were incubated in a 37° C. incubator with 5% CO2. Cell lines were regularly tested for mycoplasma contamination. For western blot assay, the cells were seeded in 6-well plates. After treating with testing compounds at indicated concentrations and time period, the media was removed and the cells were washed with PBS and lysed in 100 μl ice-cold complete lysis buffer containing 50 mM Tris-HCl pH 7.4, 1 mM EGTA, 10 mM 2-glycerophosphate, 50 mM sodium fluoride, 5 mM sodium pyrophosphate, 270 mM sucrose, supplemented with 1 μg/ml microcystin-LR, 1 mM sodium orthovanadate, complete EDTA-free protease inhibitor cocktail (Roche) and 1% (v/v) Triton X-100. The cells were immediately placed on ice and were scraped and collected into 1.5 ml Eppendorf tubes. Cell lysates were incubated on ice for 10 minutes prior to centrifugation at 15,000 g at 4° C. for 15 minutes. The cell pellet was discarded, and supernatant was collected for analysis by quantitative immunoblotting. For long term storage, the supernatant was flash frozen and stored at −80° C. Protein concentrations of cell lysates were determined using the Bradford assay.
Cell lysates containing a quarter of a volume of 4× NuPAGE LDS sample buffer (NP0007) supplemented with 5% β-mercaptoethanol, were heated at 95° C. for 5 minutes. […]

[3] = system: Rab10 pThr73; assay: Rab10 Thr73 dephosphorylation (immunoblot) in LRRK2^G2019S MEFs; type: cell-based; conditions: Mus musculus, read-out: pRab10 inhibited in LRRK2^G2019S MEFs
Protocol: as §1, with “The” for “Western blot degradation assays for the LRRK2 protacs were performed with WT and PD-associated LRRK2 [G2019S] mouse embryonic fibroblasts (MEFs). The”
as §2
Culturing and passaging of adherent cell lines were carried out using aseptic technique in CL1 or CL2 (for PBMC isolation) biological safety cabinets. All cells were incubated in a 37° C. incubator with 5% CO2. Cell lines were regularly tested for mycoplasma contamination. For western blot assay, the cells were seeded in 6-well plates. […] The cells were immediately placed on ice and were scraped and collected into 1.5 ml Eppendorf tubes. Cell lysates were incubated on ice for 10 minutes prior to centrifugation at 15,000 g at 4° C. for 15 minutes. The cell pellet was discarded, and supernatant was collected for analysis by quantitative immunoblotting. For long term storage, the supernatant was flash frozen and stored at −80° C. Protein concentrations of cell lysates were determined using the Bradford assay.
Cell lysates containing a quarter of a volume of 4× NuPAGE LDS sample buffer (NP0007) supplemented with 5% β-mercaptoethanol, were heated at 95° C. for 5 minutes. 15 to 20 μg of samples were loaded onto pre-cast 4-12% Bis-Tris midi 20W or 26W gels (Thermofisher Scientific®, Cat #WG1402BOX or WG1403BOX) and resolved at 130 V for 2 hours with NuPAGE MOPS SDS running buffer (Thermofisher Scientific® Cat #NP0001-02). Proteins were electrophoretically transferred onto a 0.45 μm nitrocellulose membrane (GE Healthcare, Amersham Protran® Supported 0.45 mm NC) at 90 V for 90 min on ice in transfer buffer (48 mM Tris base and 39 mM glycine supplemented with 20% methanol). The transferred membrane was blocked with 5% (w/v) skim milk powder dissolved in tris-buffered saline with tween (TBS-T) (50 mM Tris base, 150 mM sodium chloride (NaCl), 0.1% (v/v) Tween-20) at room temperature for 1 hour.

## CNc1nc(Nc2ccc(C(=O)N3CCN(CC4CC[C@H](CSC(C)(C)C(NC(=O)C5(F)CC5)C(=O)N5C[C@H](O)C[C@H]5C(=O)NCc5ccc(-c6scnc6C)cc5)C4)CC3)cc2OC)ncc1Cl (stereo in doubt) [XL02093, (2S,4R)-1-((S)-3-((((1S,3S)-3-((4-(4-((5-chloro-4-(methylamino)pyrimidin-2-yl)amino)-3-methoxybenzoyl)piperazin-1-yl)methyl)cyclopentyl)methyl)thio)-2-(1-fluorocyclopropane-1-carboxamido)-3-methylbutanoyl)-4-hydroxy-N-(4-(4-methylthiazol-5-yl)benzyl)pyrrolidine-2-carboxamide]
[1]; 1 μM/4 h treatment
  inhibition at 1 µM: 80 to 100%
[2]; 33 nM/4 h treatment
  inhibition at 0.033 µM: 20 to 40%
[2]; 1 μM/4 h treatment
  inhibition at 1 µM: 75 to 90%
[3]; 33 nM/4 h treatment
  inhibition at 0.033 µM: 20 to 50%

## CNc1nc(Nc2ccc(C(=O)N3CCN(CCOCCOCCN4CCN(c5ccc6c(c5)C(=O)N(C5CCC(=O)NC5=O)C6=O)CC4)CC3)cc2OC)ncc1Cl (stereo not shown) [SD10, 5-(4-(2-(2-(2-(4-(4-((5-chloro-4-(methylamino)pyrimidin-2-yl)amino)-3-methoxybenzoyl)piperazin-1-yl)ethoxy)ethoxy)ethyl)piperazin-1-yl)-2-(2,6-dioxopiperidin-3-yl)isoindoline-1,3-dione]
[1]; 1 μM/4 h treatment
  inhibition at 1 µM: 30 to 95%
[1]; 1 μM/24 h treatment
  inhibition at 1 µM: 30 to 100%
[2]; 33 nM/4 h treatment
  inhibition at 0.033 µM: 0 to 25%
[2]; 33 nM/24 h treatment
  inhibition at 0.033 µM: 10 to 40%
[2]; 1 μM/4 h treatment
  inhibition at 1 µM: 18 to 90%
[2]; 1 μM/24 h treatment
  inhibition at 1 µM: 30 to 90%
[3]; 33 nM/4 h treatment
  inhibition at 0.033 µM: 0 to 60%
[3]; 33 nM/24 h treatment
  inhibition at 0.033 µM: 0 to 70%

## CNc1nc(Nc2ccc(C(=O)N3CCN(CCCN4CCN(c5ccc6c(c5)C(=O)N(C5CCC(=O)NC5=O)C6=O)CC4)CC3)cc2OC)ncc1Cl (stereo not shown) [SD11, 5-(4-(3-(4-(4-((5-chloro-4-(methylamino)pyrimidin-2-yl)amino)-3-methoxybenzoyl)piperazin-1-yl)propyl)piperazin-1-yl)-2-(2,6-dioxopiperidin-3-yl)isoindoline-1,3-dione]
[1]; 1 μM/4 h treatment
  inhibition at 1 µM: 30 to 95%
[1]; 1 μM/24 h treatment
  inhibition at 1 µM: 30 to 100%
[2]; 33 nM/4 h treatment
  inhibition at 0.033 µM: 0 to 25%
[2]; 33 nM/24 h treatment
  inhibition at 0.033 µM: 10 to 40%
[2]; 1 μM/4 h treatment
  inhibition at 1 µM: 18 to 90%
[2]; 1 μM/24 h treatment
  inhibition at 1 µM: 30 to 90%
[3]; 33 nM/4 h treatment
  inhibition at 0.033 µM: 0 to 60%
[3]; 33 nM/24 h treatment
  inhibition at 0.033 µM: 0 to 70%

## CNc1nc(Nc2ccc(C(=O)N3CCN(CCOCCOCCOc4cc(-c5scnc5C)ccc4CNC(=O)[C@@H]4C[C@@H](O)CN4C(=O)[C@@H](NC(=O)C4(F)CC4)C(C)(C)C)CC3)cc2OC)ncc1Cl [SD12, (2S,4R)—N-(2-(2-(2-(2-(4-(4-((5-chloro-4-(methylamino)pyrimidin-2-yl)amino)-3-methoxybenzoyl)piperazin-1-yl)ethoxy)ethoxy)ethoxy)-4-(4-methylthiazol-5-yl)benzyl)-1-((S)-2-(1-fluorocyclopropane-1-carboxamido)-3,3-dimethylbutanoyl)-4-hydroxypyrrolidine-2-carboxamide]
[1]; 1 μM/4 h treatment
  inhibition at 1 µM: 30 to 95%
[1]; 1 μM/24 h treatment
  inhibition at 1 µM: 30 to 100%
[2]; 33 nM/4 h treatment
  inhibition at 0.033 µM: 0 to 25%
[2]; 33 nM/24 h treatment
  inhibition at 0.033 µM: 10 to 40%
[2]; 1 μM/4 h treatment
  inhibition at 1 µM: 18 to 90%
[2]; 1 μM/24 h treatment
  inhibition at 1 µM: 30 to 90%
[3]; 33 nM/4 h treatment
  inhibition at 0.033 µM: 0 to 60%
[3]; 33 nM/24 h treatment
  inhibition at 0.033 µM: 0 to 70%

## CNc1nc(Nc2ccc(C(=O)N3CCN(CCCOc4cc(-c5scnc5C)ccc4CNC(=O)[C@@H]4C[C@@H](O)CN4C(=O)[C@@H](NC(=O)C4(F)CC4)C(C)(C)C)CC3)cc2OC)ncc1Cl [SD13, (2S,4R)—N-(2-(3-(4-(4-((5-chloro-4-(methylamino)pyrimidin-2-yl)amino)-3-methoxybenzoyl)piperazin-1-yl)propoxy)-4-(4-methylthiazol-5-yl)benzyl)-1-((S)-2-(1-fluorocyclopropane-1-carboxamido)-3,3-dimethylbutanoyl)-4-hydroxypyrrolidine-2-carboxamide]
[1]; 1 μM/4 h treatment
  inhibition at 1 µM: 30 to 95%
[1]; 1 μM/24 h treatment
  inhibition at 1 µM: 30 to 100%
[2]; 33 nM/4 h treatment
  inhibition at 0.033 µM: 0 to 25%
[2]; 33 nM/24 h treatment
  inhibition at 0.033 µM: 10 to 40%
[2]; 1 μM/4 h treatment
  inhibition at 1 µM: 18 to 90%
[2]; 1 μM/24 h treatment
  inhibition at 1 µM: 30 to 90%
[3]; 33 nM/4 h treatment
  inhibition at 0.033 µM: 0 to 60%
[3]; 33 nM/24 h treatment
  inhibition at 0.033 µM: 0 to 70%

## CNc1nc(Nc2ccc(C(=O)N3CCN(CCOCCOCCOCCOCCOc4cc(-c5scnc5C)ccc4CNC(=O)[C@@H]4C[C@@H](O)CN4C(=O)[C@@H](NC(=O)C4(F)CC4)C(C)(C)C)CC3)cc2OC)ncc1Cl [SD79, (2S,4R)—N-(2-((14-(4-(4-((5-chloro-4-(methylamino)pyrimidin-2-yl)amino)-3-methoxybenzoyl)piperazin-1-yl)-3,6,9,12-tetraoxatetradecyl)oxy)-4-(4-methylthiazol-5-yl)benzyl)-1-((S)-2-(1-fluorocyclopropane-1-carboxamido)-3,3-dimethylbutanoyl)-4-hydroxypyrrolidine-2-carboxamide]
[1]; 1 μM/4 h treatment
  inhibition at 1 µM: 30 to 95%
[1]; 1 μM/24 h treatment
  inhibition at 1 µM: 30 to 100%
[2]; 33 nM/4 h treatment
  inhibition at 0.033 µM: 0 to 25%
[2]; 33 nM/24 h treatment
  inhibition at 0.033 µM: 10 to 40%
[2]; 1 μM/4 h treatment
  inhibition at 1 µM: 18 to 90%
[2]; 1 μM/24 h treatment
  inhibition at 1 µM: 30 to 90%
[3]; 33 nM/4 h treatment
  inhibition at 0.033 µM: 0 to 60%
[3]; 33 nM/24 h treatment
  inhibition at 0.033 µM: 0 to 70%

## CNc1nc(Nc2ccc(C(=O)N3CCN(CCOCCOCCOCCOCCOc4cccc(C(=O)c5csc(C6CCCN6C(=O)[C@@H](NC(=O)[C@H](C)NC)C6CCCCC6)n5)c4)CC3)cc2OC)ncc1Cl (stereo partly drawn) [SD112, (S)—N—((S)-2-((S)-2-(4-(3-((14-(4-(4-((5-chloro-4-(methylamino)pyrimidin-2-yl)amino)-3-methoxybenzoyl)piperazin-1-yl)-3,6,9,12-tetraoxatetradecyl)oxy)benzoyl)thiazol-2-yl)pyrrolidin-1-yl)-1-cyclohexyl-2-oxoethyl)-2-(methylamino)propenamide]
[1]; 1 μM/4 h treatment
  inhibition at 1 µM: 30 to 95%
[1]; 1 μM/24 h treatment
  inhibition at 1 µM: 30 to 100%
[2]; 33 nM/4 h treatment
  inhibition at 0.033 µM: 0 to 25%
[2]; 33 nM/24 h treatment
  inhibition at 0.033 µM: 10 to 40%
[2]; 1 μM/4 h treatment
  inhibition at 1 µM: 18 to 90%
[2]; 1 μM/24 h treatment
  inhibition at 1 µM: 30 to 90%
[3]; 33 nM/4 h treatment
  inhibition at 0.033 µM: 0 to 60%
[3]; 33 nM/24 h treatment
  inhibition at 0.033 µM: 0 to 70%

Reference: patent US20260001875A1, “AMINOPYRIMIDINYL DERIVATIVES FOR THE TREATMENT OF PARKINSON'S DISEASE” (UNIVERSITY OF DUNDEE, priority 2022, published 2026)
